Patent US12485419B2, “Sorting biological and non-biological moieties using magnetic levitation” (The Board of Trustees of the Leland Stanford Junior …, priority 2015, dated 2025)

What was measured:
red blood cells = test system: red blood cells
Method: The levitation of red blood cells (RBC) was as follows. Blood samples from healthy donors were received from Stanford University Blood Center. Whole blood was diluted at varying ratios in PBS containing 30 mM Gd^+. Concentrations were described in the results. Concentrations of 450 and 90 million cells/mL of blood were used to measure blood stabilization time. Varying concentrations of blood, ranging from 250 to 0.8 million cells/mL were used to correlate the width of the blood band and cell concentrations.
Referring now to FIGS. 7A-7D, the effect of drugs was monitored using the levitation device. […] FIG. 7D illustrates the actual images that were analyzed to produce the plots of FIGS. 7B and 7C. In FIG. 7D, a certain density beads was added each time for calibration experiments.
Images were taken over time in 60 minutes. […] FIG. 6B is then a graph showing the area analysis. Area of the blood were measured using an image) script developed in the lab. […] Looking at FIG. 6C, the levitation height is measured using same script. Height is directly correlated with density of cells.

3T3 cells = test: Effects of Gd concentration and levitation on cell viability (live/dead assay of spheroids); assay type: cell-based; conditions: 48 hours exposure to 0, 25, 50, 100 mM Gd^+; magnetic levitation (LEV) and hanging drop (HD); FIG. 30
Method: Referring now to FIG. 30, the effects of Gd concentration and levitation on cell viability are illustrated. 3T3 cells were exposed for 48 hours to different concentration of Gd^+ (0, 25, 50, 100 mM) during magnetic levitation (LEV) and hanging drop (HD). Spheroid viability was then assessed with live/dead assay (calcein/ethidium homodimer^−1). […] The white scale bar is 100 μm.

CCN(CC)CCCC(C)Nc1ccnc2cc(Cl)ccc12 (stereo not shown) [chloroquine]
levitation height of red blood cells (red blood cells; 75 mg/mL chloroquine spiked into red blood cells, with increasing time of exposure, FIG. 7A): decreases | levitation height of blood sample in capillary channel (red blood cells; chloroquine at 7.5 mg/mL and 75 mg/mL, Sample-1, Sample-2, Sample-3, especially after the high dosage, FIG. 8): levels out at a very low height | density of blood (from levitation height) (red blood cells; i-LEV, higher drug concentration, within 50 minutes, FIG. 6C): higher density

O=C([O-])CN1CCN(CC(=O)[O-])CCN([C@H](CO)[C@H](O)CO)CCN(CC(=O)[O-])CC1.[Gd+3] [Gd^+]
spheroid viability (calcein/ethidium homodimer live/dead assay) (3T3 cells): majority of the cells in the aggregates are alive
